Tests used:
[1] = Biosafety evaluation by serum biochemical tests; assay type: in vivo; settings: tumor-bearing mice, 48 h after last treatment
Experimental: Tumor-bearing mice were treated as described above. Blood samples were taken from the orbital sinus of mice at 48 h after the final injection. The harvested samples were put at 37° C. to induce the clotting reaction and centrifuged for 15 min. The resultant serum samples were stored at −80° C. until further analysis. The functions of liver, kidney and heart were examined by detecting the serum levels of glutamate pyruvate transaminase (GPT), creatinine (CRE), and creatine kinase-MB (CK-MB) using the corresponding activity assay kits (Fujifilm, Tokyo, Japan) according to the manufacturer's instruction using a clinical dry chemistry analyzer (Fuji Dri-Chem 7000V, Fujifilm Corporation, Tokyo, Japan).
Data shown indicate the mean±SD of four experiments.

RBCs from rat = assay: Hemolysis assay; assay type: cell-based; settings: 37° C., 24 h, Triton X as positive control
Experimental: 7×10^7 RBCs from rat were separated by centrifugation of whole blood. The supernatant containing plasma and platelets were removed. The pellets were washed by PBS until the supernatant was clear. Different formulations were diluted to a required concentration and added to the tubes containing 1 mL diluted RBCs. The cell suspension was mixed gently and incubated at 37° C. for 24 h. Triton X-100 was served as a positive control. Hemoglobin released from RBCs was measured spectrophotometrically. The concentration of the formed product was measured at 540 nm using an ELISA reader (TECAN, Mannedorf, Switzerland) to qualify the toxicity of liposomes to RBCs.

For O=C1[O][Pt]2([NH][C@@H]3CCCC[C@H]3[NH]2)[O]C1=O [Oxa, oxaliplatin], the “Serum levels of GPT or GOT, CRE, and CK-MB or LDH” value [1] was “remarkably escalated”.
For Triton X-100, the Hemolysis (RBCs from rat) was 100%.

Reference: patent publication US11690803B2, “Tumor pH-shiftable coating and the nucleus-directed nanoparticles facilitate the targeted chemotherapy and gene therapy against multiple cancers and use thereof” (National Yang Ming Chiao Tung University, priority 2019, dated 2023)
